Reference: PubChem BioAssay AID330 (DTP/NCI, 2004)
Several values for one entry are separate records, joined by “and”; a condition that tells them apart may be missing. Equal entries are not always repeated. Inconclusive results and toxic doses are left out.

Test system: P388 leukemia ip, CD2F1 mice, survival T/C
Test: NCI In Vivo Anticancer Drug Screen. Data for tumor model P388 Leukemia (intraperitoneal) in CD2F1 (CDF1) mice
Conditions: endpoint: median survival time, higher = longer survival
Method in brief: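 Mice carrying the transplanted tumor received test compound or vehicle. Survival was recorded in each group, and the value is the treated-group measurement divided by that of the vehicle-treated control group.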

[1] = dose: 12.5 mg/kg/injection, schedule: Q01DX009 (ip), vehicle: distilled water + Tween-80
[2] = dose: 25.0 mg/kg/injection, schedule: Q01DX009 (ip), vehicle: distilled water + Tween-80
[3] = dose: 50.0 mg/kg/injection, schedule: Q01DX009 (ip), vehicle: distilled water + Tween-80
[4] = dose: 100.0 mg/kg/injection, schedule: Q01DX009 (ip), vehicle: distilled water + Tween-80
[5] = dose: 50.0 mg/kg/injection, schedule: Q01DX009 (ip), vehicle: saline with Tween-80
[6] = dose: 100.0 mg/kg/injection, schedule: Q01DX009 (ip), vehicle: saline with Tween-80
[7] = dose: 50.0 mg/kg/injection, schedule: Q01DX009 (ip), vehicle: saline
[8] = dose: 100.0 mg/kg/injection, schedule: Q01DX009 (ip), vehicle: saline
[9] = dose: 200.0 mg/kg/injection, schedule: Q04DX002 (ip), vehicle: saline with Tween-80
[10] = dose: 400.0 mg/kg/injection, schedule: Q04DX002 (ip), vehicle: saline with Tween-80
[11] = dose: 60.0 mg/kg/injection, schedule: Q01DX005 (ip), vehicle: saline with Tween-80
[12] = dose: 120.0 mg/kg/injection, schedule: Q01DX005 (ip), vehicle: saline with Tween-80

## N#Cc1ccc(NN=NCCO)cc1
[1]
  T/C: 100 % of control
[2]
  T/C: 102 % of control
[3]
  T/C: 100 % of control
[4]
  T/C: 102 % of control

## CCOC(=O)C(C(=O)OCC)=C1c2c(ccc(OC)c2OC)C=C2c3cc4c(cc3CCN21)OCO4
dose: 0.63 mg/kg/injection, schedule: Q01DX009 (ip), vehicle: water
  T/C: 97 % of control
dose: 1.25 mg/kg/injection, schedule: Q01DX009 (ip), vehicle: water
  T/C: 100 % of control
dose: 2.5 mg/kg/injection, schedule: Q01DX009 (ip), vehicle: water
  T/C: 106 % of control
dose: 5.0 mg/kg/injection, schedule: Q01DX009 (ip), vehicle: water
  T/C: 117 % of control
dose: 10.0 mg/kg/injection, schedule: Q01DX009 (ip), vehicle: water
  T/C: 124 % of control

## CCCNC(=S)Nc1ccc(F)cc1F
dose: 3.12 mg/kg/injection, schedule: Q01DX009 (ip), vehicle: other
  T/C: 108 % of control
dose: 6.25 mg/kg/injection, schedule: Q01DX009 (ip), vehicle: other
  T/C: 107 % of control and 110 % of control and 89 % of control
dose: 12.5 mg/kg/injection, schedule: Q01DX009 (ip), vehicle: other
  T/C: 99 % of control and 100 % of control and 101 % of control
dose: 25.0 mg/kg/injection, schedule: Q01DX009 (ip), vehicle: other
  T/C: 108 % of control and 121 % of control and 96 % of control

## N#CN1C2C=CC(c3ccccc3)NC21 (stereo unspecified)
[5]
  T/C: 100 % of control
[6]
  T/C: 96 % of control

## CCN(CC)CCN1C(=O)[C@H]2CC=CC[C@H]2C1=O
dose: 50.0 mg/kg/injection, schedule: Q01DX005 (ip), vehicle: saline
  T/C: 99 % of control
dose: 100.0 mg/kg/injection, schedule: Q01DX005 (ip), vehicle: saline
  T/C: 105 % of control
dose: 200.0 mg/kg/injection, schedule: Q01DX005 (ip), vehicle: saline
  T/C: 97 % of control

## c1cnc(NC(Nc2cnccn2)C2CCCCC2)cn1
dose: 60.0 mg/kg/injection, schedule: Q01DX005 (ip), vehicle: Klucel (hydroxypropylcellulose) (HPC)
  T/C: 96 % of control
dose: 120.0 mg/kg/injection, schedule: Q01DX005 (ip), vehicle: Klucel (hydroxypropylcellulose) (HPC)
  T/C: 100 % of control
dose: 240.0 mg/kg/injection, schedule: Q01DX005 (ip), vehicle: Klucel (hydroxypropylcellulose) (HPC)
  T/C: 107 % of control

## Cc1cnc(Sc2ncccn2)c([N+](=O)[O-])c1
[7]
  T/C: 101 % of control
[8]
  T/C: 104 % of control
dose: 200.0 mg/kg/injection, schedule: Q01DX009 (ip), vehicle: saline
  T/C: 104 % of control

## O=[N+]([O-])c1cccc(N/N=C\c2cccc3c(/C=N/Nc4cccc([N+](=O)[O-])c4)c(Cl)n(-c4ccccc4)c23)c1
dose: 100.0 mg/kg/injection, schedule: Q01DX001 (ip), vehicle: Klucel (hydroxypropylcellulose) (HPC)
  T/C: 86 % of control

## Brc1ccc(N=C2N=C(Nc3ccc(Br)cn3)c3ccccc32)nc1
dose: 12.5 mg/kg/injection, schedule: Q04DX002 (ip), vehicle: saline with Tween-80
  T/C: 100 % of control
dose: 25.0 mg/kg/injection, schedule: Q04DX002 (ip), vehicle: saline with Tween-80
  T/C: 94 % of control
dose: 50.0 mg/kg/injection, schedule: Q04DX002 (ip), vehicle: saline with Tween-80
  T/C: 90 % of control
[9]
  T/C: 91 % of control
[10]
  T/C: 106 % of control

## CCOC(=O)C(NC(=O)C1(O)C(O)C2(CC)C=CCN3CCC4(c5cc(C6(C(=O)OC)CC7CN(CCc8c6[nH]c6ccccc86)CC(O)(CC)C7)c(OC)cc5N(C)C14)C32)C(C)CC (stereo unspecified)
dose: 1.0 mg/kg/injection, schedule: Q01DX001 (ip), vehicle: saline
  T/C: 124 % of control
dose: 2.0 mg/kg/injection, schedule: Q01DX001 (ip), vehicle: saline
  T/C: 155 % of control
dose: 4.0 mg/kg/injection, schedule: Q01DX001 (ip), vehicle: saline
  T/C: 181 % of control
dose: 8.0 mg/kg/injection, schedule: Q01DX001 (ip), vehicle: saline
  T/C: 172 % of control and 203 % of control
dose: 16.0 mg/kg/injection, schedule: Q01DX001 (ip), vehicle: saline
  T/C: 191 % of control

## COc1cccc(/C=N\NC(=O)C(=O)N/N=C\c2cccc(OC)c2O)c1O
dose: 50.0 mg/kg/injection, schedule: Q01DX009 (ip), vehicle: Klucel (hydroxypropylcellulose) (HPC)
  T/C: 86 % of control
dose: 100.0 mg/kg/injection, schedule: Q01DX009 (ip), vehicle: Klucel (hydroxypropylcellulose) (HPC)
  T/C: 89 % of control
dose: 200.0 mg/kg/injection, schedule: Q01DX009 (ip), vehicle: Klucel (hydroxypropylcellulose) (HPC)
  T/C: 92 % of control

## CCCCC[C@@H]1CCCC2C1CCC(CCCCCO)N2C(=O)OCC(Cl)(Cl)Cl (stereo partly specified)
dose: 50.0 mg/kg/injection, schedule: Q01DX005 (ip), vehicle: saline with Tween-80
  T/C: 100 % of control
dose: 100.0 mg/kg/injection, schedule: Q01DX005 (ip), vehicle: saline with Tween-80
  T/C: 106 % of control
dose: 200.0 mg/kg/injection, schedule: Q01DX005 (ip), vehicle: saline with Tween-80
  T/C: 100 % of control

## c1cc[n+](CCC2OCCO2)cc1
dose: 12.5 mg/kg/injection, schedule: Q01DX009 (ip), vehicle: saline
  T/C: 109 % of control
dose: 25.0 mg/kg/injection, schedule: Q01DX009 (ip), vehicle: saline
  T/C: 109 % of control
[7]
  T/C: 100 % of control
[8]
  T/C: 108 % of control

## COc1ccc2n[se]nc2c1
[11]
  T/C: 93 % of control
[12]
  T/C: 93 % of control

## N#CC1OC(COC(=O)c2ccccc2)C(OC(=O)c2ccccc2)C1OC(=O)c1ccccc1 (stereo unspecified)
[1]
  T/C: 90 % of control
[2]
  T/C: 89 % of control
[3]
  T/C: 88 % of control
[5]
  T/C: 99 % of control
[4]
  T/C: 98 % of control
[6]
  T/C: 94 % of control
dose: 200.0 mg/kg/injection, schedule: Q01DX009 (ip), vehicle: distilled water + Tween-80
  T/C: 101 % of control
dose: 200.0 mg/kg/injection, schedule: Q01DX009 (ip), vehicle: saline with Tween-80
  T/C: 94 % of control

## O=C1CSC(c2cccnc2)N1CCN1C(=O)CSC1c1cccnc1 (stereo unspecified)
[11]
  T/C: 105 % of control
dose: 100.0 mg/kg/injection, schedule: Q04DX002 (ip), vehicle: saline with Tween-80
  T/C: 112 % of control
[12]
  T/C: 105 % of control
[9]
  T/C: 112 % of control
dose: 240.0 mg/kg/injection, schedule: Q01DX005 (ip), vehicle: saline with Tween-80
  T/C: 101 % of control
[10]
  T/C: 109 % of control
